Measured values reported in US9624211B2, “Anti-cancer compounds” (Board of Regents, The University of Texas System, priority 2013, dated 2017).

Molecular target: T1, Skp1/Skp2 binding interaction (Homo sapiens, UniProt Q13309)
T1 construct: made in house; host or cells: GST-Skp1: E. coli BL21; Skp2: in vitro translation
Assay: In vitro Skp2-Skp1 binding assay (GST pull-down)
Description: For in vitro GST-Skp1 and Skp2 interaction, GST-Skp1 proteins purified from the bacterial lysates of BL21 competent cells transformed with pGEX-4X1-Skp1 using the Glutathione-Agarose beads according to the manufacturer's standard procedures. The GST-Skp1 proteins bound to glutathione Sepharose beads (Amersham Biosciences) were then incubated with the in vitro translated [35^S]-Skp2 for 2 hours at 4° C. in the interaction buffer with or without compound #25 (20 mM HEPES, PH 7.9, 150 mM KCl. 5 mM EDTA, 0.5 mM DTT, 0.1% (v/v) Nonidet p-40, 0.1% (w/v) BSA, 1 mM PMSF, and 10% Glycerol), washed by the NETN buffer (20 mM Tris, pH 8.0, 100 mM NaCl, 6 mM MgCl2, 1 mM EDTA, 0.5% Nonidet P-40, 1 mM DTT, 8% glycerol, 1 mM PMSF) 4 times, and subjected to 8% SDS-PAGE, followed by autoradiography.
Below are the original lead compound and 11 similar compounds that were tested for their ability to block the Skp1/Skp2 binding interaction in an in vitro assay. The quantification was made on western blot/images, and the percentages represent the amount of intact Skp1/Skp2 remaining after treatment. In vitro binding assays were performed. For in vitro GST-Skp1 and Skp2 interaction, GST-Skp1 proteins purified from the bacterial lysates of BL21 competent cells transformed with pGEX-4X1-Skp1 using the Glutathione-Agarose beads were performed according to the manufacturer's standard procedures. The GST-Skp1 proteins bound to glutathione Sepharose beads (Amersham Biosciences) were then incubated with the in vitro translated [35^S]-Skp2 for 2 hours at 4° C. in the interaction buffer with or without lead compound and 11 similar compounds (20 mM HEPES, PH 7.9, 150 mM KCl. 5 mM EDTA, 0.5 mM DTT, 0.1% (v/v) Nonidet p-40, 0.1% (w/v) BSA, 1 mM PMSF, and 10% Glycerol), washed by the NETN buffer (20 mM Tris, pH 8.0, 100 mM NaCl, 6 mM MgCl2, 1 mM EDTA, 0.5% Nonidet P-40, 1 mM DTT, 8% glycerol, 1 mM PMSF) 4 times, and subjected to 8% SDS-PAGE, followed by autoradiography. The data presented in Table 1 below was obtained using the Skp1/Skp2 binding affinity assay. The quantification percentage results listed below are based on the western blot results.

T1 sequence (Q13309 whole entry): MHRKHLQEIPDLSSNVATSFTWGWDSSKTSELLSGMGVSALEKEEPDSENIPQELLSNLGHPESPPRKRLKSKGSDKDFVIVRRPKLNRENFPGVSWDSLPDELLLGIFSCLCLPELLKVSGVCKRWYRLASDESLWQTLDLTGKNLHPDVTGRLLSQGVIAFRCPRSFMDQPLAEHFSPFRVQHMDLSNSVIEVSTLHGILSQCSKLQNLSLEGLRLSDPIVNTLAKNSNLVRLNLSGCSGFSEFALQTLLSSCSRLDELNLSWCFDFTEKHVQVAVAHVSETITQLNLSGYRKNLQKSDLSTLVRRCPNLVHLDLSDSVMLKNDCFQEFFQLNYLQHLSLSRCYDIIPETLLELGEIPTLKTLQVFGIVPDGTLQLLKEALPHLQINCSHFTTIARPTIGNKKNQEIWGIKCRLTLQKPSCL

- disruption of Skp2-Skp1 interaction (5 μM): completely disrupt Skp2-Skp1 interaction
- Normalized w/ vehicle treatment (amount of intact Skp1/Skp2 remaining after treatment, quantified on western blot/images): 10%
SMILES: CCc1cc2c(=O)c(-c3nc4ccccc4s3)coc2c(CN2CCCCC2)c1O [compound #25, 3-(1,3-benzothiazol-2-yl)-6-ethyl-7-hydroxy-8-(1-piperidinylmethyl)-4H-chromen-4-one]
- interaction between WT Skp2 and Skp1 (WT Skp2, FIG. 2D): prevented the interaction between WT Skp2 and Skp1
